{
  "source": "ChEMBL document CHEMBL4627322",
  "about": "“Design and synthesis of a novel class EGFR/HER2 dual inhibitors containing tricyclic oxazine fused quinazolines scaffold” (Bioorg Med Chem Lett, 2020)",
  "key": {"NCI-N87 [1]": {"system": "NCI-N87", "test": "cells", "format": "functional, cell-based", "settings": "Homo sapiens, NCI-N87, 72 h", "description": "Antiproliferative activity against human NCI-N87 cells overexpressing HER2 assessed as cell growth inhibition measured after 72 hrs by MTT assay"}, "NCI-H1975": {"system": "NCI-H1975", "test": "cells", "format": "functional, cell-based", "settings": "Homo sapiens, NCI-H1975, 72 h", "description": "Antiproliferative activity against human NCI-H1975 cells harboring EGFR L858R/T790M mutant assessed as cell growth inhibition measured after 72 hrs by MTT assay"}, "A-431 [2]": {"system": "A-431", "test": "cells", "format": "functional, cell-based", "settings": "Homo sapiens, A-431, 72 h", "description": "Antiproliferative activity against human A431 cells overexpressing EGFR assessed as cell growth inhibition measured after 72 hrs by MTT assay"}, "BT-474 [3]": {"system": "BT-474", "test": "cells", "format": "functional, cell-based", "settings": "Homo sapiens, BT-474, 72 h", "description": "Antiproliferative activity against human BT474 cells overexpressing HER2 assessed as cell growth inhibition measured after 72 hrs by MTT assay"}, "Calu-3 [4]": {"system": "Calu-3", "test": "cells", "format": "functional, cell-based", "settings": "Homo sapiens, Calu-3, 72 h", "description": "Antiproliferative activity against human Calu3 cells overexpressing HER2 assessed as cell growth inhibition measured after 72 hrs by MTT assay"}, "[5]": {"target": "T1, Epidermal growth factor receptor (Homo sapiens, UniProt P00533)", "T1 sequence (P00533 whole entry)": "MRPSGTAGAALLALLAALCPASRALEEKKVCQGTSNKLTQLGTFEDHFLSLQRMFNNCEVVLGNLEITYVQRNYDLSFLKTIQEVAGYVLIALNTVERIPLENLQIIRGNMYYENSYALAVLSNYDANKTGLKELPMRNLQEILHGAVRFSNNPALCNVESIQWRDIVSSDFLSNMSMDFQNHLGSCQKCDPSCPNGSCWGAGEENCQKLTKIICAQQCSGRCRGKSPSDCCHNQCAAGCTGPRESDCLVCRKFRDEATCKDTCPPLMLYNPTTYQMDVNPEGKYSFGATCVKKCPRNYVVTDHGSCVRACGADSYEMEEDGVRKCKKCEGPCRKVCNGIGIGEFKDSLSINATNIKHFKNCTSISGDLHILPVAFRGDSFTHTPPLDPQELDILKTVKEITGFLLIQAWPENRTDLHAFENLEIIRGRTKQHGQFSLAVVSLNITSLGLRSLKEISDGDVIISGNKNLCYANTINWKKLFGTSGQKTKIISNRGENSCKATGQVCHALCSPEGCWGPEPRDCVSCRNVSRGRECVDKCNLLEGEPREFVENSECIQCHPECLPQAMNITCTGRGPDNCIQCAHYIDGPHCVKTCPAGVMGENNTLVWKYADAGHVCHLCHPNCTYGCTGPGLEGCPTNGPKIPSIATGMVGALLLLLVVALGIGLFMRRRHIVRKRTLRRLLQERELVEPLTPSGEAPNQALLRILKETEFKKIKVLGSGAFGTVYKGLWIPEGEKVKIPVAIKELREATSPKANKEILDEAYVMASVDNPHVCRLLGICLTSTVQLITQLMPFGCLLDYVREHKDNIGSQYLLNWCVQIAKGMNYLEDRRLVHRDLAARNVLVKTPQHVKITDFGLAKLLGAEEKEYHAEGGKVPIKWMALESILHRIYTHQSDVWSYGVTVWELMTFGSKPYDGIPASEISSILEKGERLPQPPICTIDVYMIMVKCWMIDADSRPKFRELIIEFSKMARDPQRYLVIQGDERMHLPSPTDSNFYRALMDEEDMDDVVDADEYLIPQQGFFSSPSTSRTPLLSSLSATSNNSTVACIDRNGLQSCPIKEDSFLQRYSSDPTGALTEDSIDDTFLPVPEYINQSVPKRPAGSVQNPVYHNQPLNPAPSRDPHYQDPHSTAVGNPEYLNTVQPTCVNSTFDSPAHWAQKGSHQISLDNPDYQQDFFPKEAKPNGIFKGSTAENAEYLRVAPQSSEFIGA", "format": "cell-based, KB", "description": "Inhibition of EGFR in human KB cells assessed as reduction in EGF-stimulated EGFR phosphorylation preincubated for 1 hr followed by EGF stimulation and measured after 6 mins by ELISA"}, "[6]": {"target": "T1, Epidermal growth factor receptor", "description": "Inhibition of EGFR (unknown origin) using FAM-labeled peptide as substrate preincubated for 10 mins followed by substrate addition measured after 40 mins in presence of ATP by caliper mobility shift assay"}, "[7]": {"target": "Receptor tyrosine-protein kinase erbB-2 (Homo sapiens, UniProt P04626)", "sequence (P04626 whole entry)": "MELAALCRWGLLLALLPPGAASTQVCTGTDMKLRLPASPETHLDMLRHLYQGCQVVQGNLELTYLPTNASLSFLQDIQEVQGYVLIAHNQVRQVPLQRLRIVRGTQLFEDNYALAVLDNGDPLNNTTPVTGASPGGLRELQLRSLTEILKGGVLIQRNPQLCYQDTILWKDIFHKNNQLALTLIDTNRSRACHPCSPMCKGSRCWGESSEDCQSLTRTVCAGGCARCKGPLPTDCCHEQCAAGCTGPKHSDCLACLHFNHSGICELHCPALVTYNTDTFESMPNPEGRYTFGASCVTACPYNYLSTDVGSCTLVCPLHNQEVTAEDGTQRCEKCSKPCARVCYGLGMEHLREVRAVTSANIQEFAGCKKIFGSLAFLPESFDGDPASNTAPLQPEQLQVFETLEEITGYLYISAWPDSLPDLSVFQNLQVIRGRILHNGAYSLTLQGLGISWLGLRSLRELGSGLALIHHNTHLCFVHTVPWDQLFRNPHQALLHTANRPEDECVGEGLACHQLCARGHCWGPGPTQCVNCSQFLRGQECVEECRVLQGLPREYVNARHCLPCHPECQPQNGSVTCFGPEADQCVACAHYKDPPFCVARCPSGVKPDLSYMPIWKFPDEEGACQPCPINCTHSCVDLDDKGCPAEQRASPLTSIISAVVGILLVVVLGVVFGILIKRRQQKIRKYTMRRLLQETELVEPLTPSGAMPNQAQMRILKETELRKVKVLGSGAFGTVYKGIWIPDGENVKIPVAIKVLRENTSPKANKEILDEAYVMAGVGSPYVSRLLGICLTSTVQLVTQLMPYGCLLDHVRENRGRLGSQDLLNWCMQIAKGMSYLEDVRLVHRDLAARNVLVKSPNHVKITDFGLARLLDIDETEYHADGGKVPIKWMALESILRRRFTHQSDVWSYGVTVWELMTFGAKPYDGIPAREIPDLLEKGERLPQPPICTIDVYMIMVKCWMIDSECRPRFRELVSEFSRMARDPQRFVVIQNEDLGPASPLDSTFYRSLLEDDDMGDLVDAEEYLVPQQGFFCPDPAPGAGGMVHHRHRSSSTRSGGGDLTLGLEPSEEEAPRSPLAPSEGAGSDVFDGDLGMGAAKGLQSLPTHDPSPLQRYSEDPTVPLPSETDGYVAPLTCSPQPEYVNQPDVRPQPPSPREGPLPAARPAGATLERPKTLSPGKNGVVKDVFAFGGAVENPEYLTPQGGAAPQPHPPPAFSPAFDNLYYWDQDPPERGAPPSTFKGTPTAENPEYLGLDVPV", "test": "Inhibition of HER2 (unknown origin) using FAM-labeled peptide as substrate preincubated for 10 mins followed by substrate addition measured after 40 mins in presence of ATP by caliper mobility shift assay"}, "NCI-N87 [8]": {"system": "NCI-N87", "test": "Potency index, ratio of lapatinib IC50 to test compound IC50 for antiproliferative activity against human NCI-N87 cells overexpressing HER2 assessed as cell growth inhibition measured after 72 hrs by MTT assay", "format": "functional"}, "A-431 [9]": {"system": "A-431", "test": "Potency index, ratio of lapatinib IC50 to test compound IC50 for antiproliferative activity against human A431 cells overexpressing EGFR assessed as cell growth inhibition measured after 72 hrs by MTT assay", "format": "functional"}, "BT-474 [10]": {"system": "BT-474", "test": "Potency index, ratio of lapatinib IC50 to test compound IC50 for antiproliferative activity against human BT474 cells overexpressing HER2 assessed as cell growth inhibition measured after 72 hrs by MTT assay", "format": "functional"}, "Calu-3 [11]": {"system": "Calu-3", "test": "Potency index, ratio of lapatinib IC50 to test compound IC50 for antiproliferative activity against human Calu3 cells overexpressing HER2 assessed as cell growth inhibition measured after 72 hrs by MTT assay", "format": "functional"}, "NCI-N87 [12]": {"system": "NCI-N87", "test": "Potency index, ratio of gefitinib IC50 to test compound IC50 for antiproliferative activity against human NCI-N87 cells overexpressing HER2 assessed as cell growth inhibition measured after 72 hrs by MTT assay", "format": "functional"}, "A-431 [13]": {"system": "A-431", "test": "Potency index, ratio of gefitinib IC50 to test compound IC50 for antiproliferative activity against human A431 cells overexpressing EGFR assessed as cell growth inhibition measured after 72 hrs by MTT assay", "format": "functional"}, "BT-474 [14]": {"system": "BT-474", "test": "Potency index, ratio of gefitinib IC50 to test compound IC50 for antiproliferative activity against human BT474 cells overexpressing HER2 assessed as cell growth inhibition measured after 72 hrs by MTT assay", "format": "functional"}, "Calu-3 [15]": {"system": "Calu-3", "test": "Potency index, ratio of gefitinib IC50 to test compound IC50 for antiproliferative activity against human Calu3 cells overexpressing HER2 assessed as cell growth inhibition measured after 72 hrs by MTT assay", "format": "functional"}, "NCI-N87 [16]": {"system": "NCI-N87", "test": "Potency index, ratio of erlotinib IC50 to test compound IC50 for antiproliferative activity against human NCI-N87 cells overexpressing HER2 assessed as cell growth inhibition measured after 72 hrs by MTT assay", "format": "functional"}, "A-431 [17]": {"system": "A-431", "test": "Potency index, ratio of erlotinib IC50 to test compound IC50 for antiproliferative activity against human A431 cells overexpressing EGFR assessed as cell growth inhibition measured after 72 hrs by MTT assay", "format": "functional"}, "BT-474 [18]": {"system": "BT-474", "test": "Potency index, ratio of erlotinib IC50 to test compound IC50 for antiproliferative activity against human BT474 cells overexpressing HER2 assessed as cell growth inhibition measured after 72 hrs by MTT assay", "format": "functional"}, "Calu-3 [19]": {"system": "Calu-3", "test": "Potency index, ratio of erlotinib IC50 to test compound IC50 for antiproliferative activity against human Calu3 cells overexpressing HER2 assessed as cell growth inhibition measured after 72 hrs by MTT assay", "format": "functional"}},
  "data": [
    {"compound": "O=C(/C=C/CN1CCOCC1)N1CCOc2cc3ncnc(Nc4ccc(OCc5cccc(F)c5)c(Cl)c4)c3cc21", "values": [
      {"measurement": "IC50", "setting": "NCI-N87 [1]", "result": 0.011, "unit": "µM"},
      {"measurement": "IC50", "setting": "NCI-H1975", "result": 4.35, "unit": "µM"},
      {"measurement": "IC50", "setting": "A-431 [2]", "result": 0.127, "unit": "µM"},
      {"measurement": "IC50", "setting": "BT-474 [3]", "result": 0.015, "unit": "µM"},
      {"measurement": "IC50", "setting": "Calu-3 [4]", "result": 0.037, "unit": "µM"},
      {"measurement": "IC50", "setting": "[5]", "result": 0.012, "unit": "µM"},
      {"measurement": "IC50", "setting": "[6]", "result": 0.007, "unit": "µM"},
      {"measurement": "IC50", "setting": "[7]", "result": 0.012, "unit": "µM"},
      {"measurement": "Ratio IC50", "setting": "NCI-N87 [8]", "result": "2.5 - 28.3"},
      {"measurement": "Ratio IC50", "setting": "A-431 [9]", "result": "2.5 - 28.3"},
      {"measurement": "Ratio IC50", "setting": "BT-474 [10]", "result": "2.5 - 28.3"},
      {"measurement": "Ratio IC50", "setting": "Calu-3 [11]", "result": "2.5 - 28.3"},
      {"measurement": "Ratio IC50", "setting": "NCI-N87 [12]", "result": "4.3 - 26.6"},
      {"measurement": "Ratio IC50", "setting": "A-431 [13]", "result": "4.3 - 26.6"},
      {"measurement": "Ratio IC50", "setting": "BT-474 [14]", "result": "4.3 - 26.6"},
      {"measurement": "Ratio IC50", "setting": "Calu-3 [15]", "result": "4.3 - 26.6"},
      {"measurement": "Ratio IC50", "setting": "NCI-N87 [16]", "result": ">5.9 - 909"},
      {"measurement": "Ratio IC50", "setting": "A-431 [17]", "result": ">5.9 - 909"},
      {"measurement": "Ratio IC50", "setting": "BT-474 [18]", "result": ">5.9 - 909"},
      {"measurement": "Ratio IC50", "setting": "Calu-3 [19]", "result": ">5.9 - 909"}
    ]}
  ]
}
